Source: patent US20150140059A1 (The Regents of the University of California, priority 2012, published 2015)
Read-outs that look alike come from different tables or passages of the source.

Tests used:
Lewis rats [1] = test: Rat posterolateral intertransverse process spinal fusion at L4-L5; format: in vivo; conditions: for Fusion Rates, Manual Palpation / Fusion Rates, Micro-CT / Fusion Rates, X-ray: at sacrifice (8 weeks); for bilateral fusion on radiographs (animals): four weeks; for Fusion Mass Bone Volume / Fusion Mass Bone Volume to Tissue Volume / Fusion Mass Total Tissue Volume / Fusion Mass Trabecular Separation / trabecular thickness per footnote: micro-CT
Method: Thirty-eight 8-week-old male Lewis rats were purchased from Charles River Laboratories (Wilmington, Mass.) and were maintained and housed at the UCLA vivarium in accordance with regulations set forth by the UCLA Office of Protection of Research Subjects. The study was performed under a protocol approved by the UCLA Animal Research Committee (ARC).
Animals were pre-medicated with sustained release buprenorphine thirty minutes prior to surgery and anesthetized with 2% isoflurane administered in oxygen (1 L/min). The surgical site was shaved and disinfected with Betadine and 70% ethanol. Posterolateral intertransverse process spinal fusion at L4-L5 was performed as in prior studies (21,22). The L6 vertebral body was identified using the iliac crest as a landmark. A 4-cm longitudinal midline incision was made through the skin and subcutaneous tissue over L4-L5 down to the lumbodorsal fascia. A 2-cm longitudinal paramedial incision was then made in the paraspinal muscles bilaterally to expose the transverse processes of L4-L5, which were decorticated with a high-speed burr. […] The implants were then covered with the overlying paraspinal muscles and the lumbodorsal fascia and skin were closed with 4-0 Prolene sutures (Ethicon, Inc., Somerville, N.J.). Animals were allowed to ambulate, eat, and drink ad libitum immediately after surgery.
Posteroanterior radiographs of the lumbar spine were taken on each animal at 4, 6, and 8 weeks after surgery using a Faxitron LX60 cabinet radiography system and evaluated blindly by two independent observers employing the following standardized scale: 0, no fusion; 1, unilateral fusion; and 2, complete bilateral fusion. The scores from the observers were added together and only a score of 4 was considered as complete fusion.
Eight weeks after surgery, animals were euthanized and the spines were surgically removed and evaluated by two blinded independent observers for motion between levels. Nonunion was recorded if motion was observed between the facets or transverse processes on either side. Complete fusion was recorded if no motion was observed bilaterally. Spines were scored as either fused or not fused. Unanimous agreement was required to consider complete fusion.
Each removed spine was analyzed by high resolution micro-computed tomography (micro-CT), using a SkyScan 1172 scanner (SkyScan, Belgium) with a voxel isotropic resolution of 20 μm and an X-ray energy of 55 kVp and […] to further assess the fusion rate and observe the fusion mass as we have previously reported (15). Three hundred and sixty projections were acquired over an angular range of 180° with steps of 0.5 with an exposure time of 220 msec/slice. Five frames were averaged at each rotation step to get better signal to noise ratio. A 0.5 mm aluminum filter was used to narrow down the X-ray beam frequency in order to minimize beam hardening artifact. Virtual image slices were reconstructed using the cone-beam reconstruction software version 2.6 based on the Feldkamp algorithm (SkyScan). These settings produced serial cross-sectional 1024×1024 pixel images. Sample re-orientation and 2D visualization were performed using DataViewer (SkyScan). 3D visualization was performed using Dolphin Imaging version 11 (Dolphin Imaging & Management Solutions, Chatsworth, Calif.). Fusion was defined as the bilateral presence of bridging bone between the L4 and L5 transverse processes. The reconstructed images were judged to be fused or not fused by two experienced independent observers. To quantify the density of bone formed within each fusion mass, the tissue volume of the mass (TV), trabecular bone volume within the mass (BV), BV/TV ratio, trabecular thickness, and trabecular separation were calculated. This was performed using DataViewer software with measurements across 501 axial slices (20 um per slice, 10.02 mm length) within each fusion mass, centered at the level of the intervertebral body of L4-5.

[2] = test system: C3H10T1/2 embryonic fibroblast cells; format: cell-based, mouse; conditions: C3H cells, 4 days; for EC50: whole cell extracts, read-out: EC50 for inducing ALP activity
Method: (§1) For direct comparison to Oxy133, C3H cells were also treated with Oxy34 and Oxy49 (FIG. 2A). After 4 days, alkaline phosphatase (ALP) activity was measured in whole cell extracts.
(§2) Cells at confluence were treated with vehicle, Oxy133 or Oxy149. After 4 days, alkaline phosphatase (ALP) activity was measured in whole cell extracts.
(§3) Alkaline phosphatase (ALP) activity assay on whole cell extracts (13,14), and von Kossa staining of cell monolayers for mineralization (16) were performed as previously described.

[3] = test system: 8X-Gli luciferase reporter (Hedgehog pathway); format: cell-based, mouse; conditions: C3H cells, 48 hours
Method: (§4) After 4 days ALP activity, and after 7 days the expression of osteogenic genes ALP, BSP, and OSX was measured by quantitative real-time PCR (p<0.001 for control vs. Oxy133, and for Oxy133 vs. Oxy133+Cyc for ALP activity and for the expression of all genes shown). […] (p<0.001 for control vs. Oxy133 at 100 nM, 250 nM, and 1 μM Oxy133). (FIG. 4C) The amount of YFP-Smo captured by 20S beads or control beads was compared in samples containing either no competitor or 50 μM of a free competitor sterol (20S, Oxy133 or Oxy16). The YFP-Smo captured by the beads was measured by Western blot (top) and plotted (bottom) relative to the amount captured in the binding reaction with no competitor.
Cells at 70% confluence in 24-well plates were transiently transfected with Gli-dependent firefly luciferase and Renilla luciferase vectors as we have previously described (17,18). […] Luciferase activity was assessed using the Dual Luciferase Reporter Assay System (Promega Corporation, Madison, Wis.) according to manufacturer's instructions after cells were treated for 48 hours.

[4] = test system: M2-10B4 bone marrow stromal cells; test: Alkaline phosphatase (ALP) activity assay in M2-10B4 cells; format: cell-based, mouse
Method: as §1, §2, §3

[5] = test system: primary human mesenchymal stem cells; test: Osteogenic gene expression by quantitative RT-PCR in primary human MSC; format: cell-based; conditions: 5 μM
Description: (La Jolla, Calif.). […] Human primers sequences were: […] ID NO:1) and 3'-[NT] (SEQ ID NO:2), BSP 5'-[NT] ID NO:3) and 3'-[NT] ID NO:4), […] ID NO:5) and 3'-[NT]

Lewis rats [6] = conditions: prior studies (ref. 15); cited from earlier work
Smoothened (YFP-Smo) = target: T1, Smoothened (YFP-Smo) (Mus musculus, UniProt P56726); test: YFP-Smo capture by 20S-beads, competition with free sterol; format: binding; conditions: 50 μM free competitor sterol, Western blot, semi-quantitative
T1 construct: expressed in transfected cells
Method: as §4
We previously reported that 20S selectively activates Hh signaling by binding to the Smo receptor (19). To determine whether Oxy133 activates Hh signaling by the same mechanism, we tested the ability of Oxy133 to compete for YFP-tagged Smo (YFP-Smo) binding with a 20S analogue coupled to magnetic beads. As we previously reported, this analogue, nat-20S-yne, contains an alkyne moiety on the iso-octyl chain, allowing for click chemistry-mediated coupling to magnetic beads (20S-beads) (19). Using these beads for sterol-binding assays, the amount of YFP-Smo remaining on the beads relative to a no-competitor sample is measured by Western blotting. […]

T1 sequence (P56726 33-793): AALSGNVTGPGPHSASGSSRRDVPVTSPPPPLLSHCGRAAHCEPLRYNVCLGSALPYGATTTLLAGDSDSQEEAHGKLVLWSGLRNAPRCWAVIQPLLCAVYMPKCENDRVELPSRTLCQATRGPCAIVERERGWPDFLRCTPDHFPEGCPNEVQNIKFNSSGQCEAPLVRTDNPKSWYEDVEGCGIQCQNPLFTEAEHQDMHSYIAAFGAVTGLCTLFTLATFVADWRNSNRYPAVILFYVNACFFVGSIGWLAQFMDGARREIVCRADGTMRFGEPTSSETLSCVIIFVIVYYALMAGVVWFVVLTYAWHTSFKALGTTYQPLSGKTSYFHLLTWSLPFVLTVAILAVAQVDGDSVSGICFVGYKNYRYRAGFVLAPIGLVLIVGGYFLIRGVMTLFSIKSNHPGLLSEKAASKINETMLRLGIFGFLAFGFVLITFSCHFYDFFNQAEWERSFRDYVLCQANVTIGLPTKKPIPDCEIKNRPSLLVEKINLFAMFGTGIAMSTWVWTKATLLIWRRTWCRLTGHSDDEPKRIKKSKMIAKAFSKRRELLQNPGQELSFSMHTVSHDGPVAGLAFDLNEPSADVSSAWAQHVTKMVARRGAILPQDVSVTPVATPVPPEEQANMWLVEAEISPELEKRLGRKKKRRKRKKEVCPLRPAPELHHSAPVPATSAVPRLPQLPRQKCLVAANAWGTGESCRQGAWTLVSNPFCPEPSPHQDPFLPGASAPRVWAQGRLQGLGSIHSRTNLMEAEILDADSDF

CCCCCC[C@](C)(O)[C@H]1CC[C@H]2[C@@H]3C[C@H](O)[C@H]4C[C@@H](O)CC[C@]4(C)[C@H]3CC[C@@]21C [Oxy133, (3S,5S,6S,8R,9S,10R,13S,14S,17S)-17-((S)-2-hydroxyoctan-2-yl)-10,13-dimethylhexadecahydro-1H-cyclopenta[a]phenanthrene-3,6-diol]
Fusion Rates, Manual Palpation (Lewis rats [1]; 0.2 mg): 0% | Fusion Rates, Micro-CT (Lewis rats [1]; 0.2 mg): 0% | Fusion Rates, X-ray (Lewis rats [1]; 0.2 mg): 0% | bilateral fusion, manual palpation (animals) (Lewis rats [1]; 2 mg, 8 weeks): 4/8 | bilateral fusion, micro-CT (animals) (Lewis rats [1]; 2 mg, 8 weeks): 4/8 | Fusion Rates, Manual Palpation (Lewis rats [1]; 2 mg): 50% | Fusion Rates, Micro-CT (Lewis rats [1]; 2 mg): 50% | Fusion Rates, X-ray (Lewis rats [1]; 2 mg): 50% | fusion on radiographs (animals) (Lewis rats [1]; 2 mg, eight weeks): 4/8 | bilateral fusion on radiographs (animals) (Lewis rats [1]; 2 mg): 3/8 | Fusion Mass Bone Volume (Lewis rats [1]; 2 mg, 8 weeks): 21.217 mm^3 | Fusion Mass Bone Volume to Tissue Volume (Lewis rats [1]; 2 mg, 8 weeks): 27.104% | Fusion Mass Total Tissue Volume (Lewis rats [1]; 2 mg, 8 weeks): 78.586 mm^3 | Fusion Mass Trabecular Separation (Lewis rats [1]; 2 mg, 8 weeks): 321.693 μm | trabecular thickness per footnote (Lewis rats [1]; 2 mg, 8 weeks): 134.008 | bilateral fusion, manual assessment (animals) (Lewis rats [1]; 20 mg, 8 weeks): 6/7 | Fusion Rates, Manual Palpation (Lewis rats [1]; 20 mg): 86% | Fusion Rates, Micro-CT (Lewis rats [1]; 20 mg): 100% | Fusion Rates, X-ray (Lewis rats [1]; 20 mg): 100% | bilateral fusion on radiographs (animals) (Lewis rats [1]; 20 mg): 6/7 | Fusion Mass Bone Volume (Lewis rats [1]; 20 mg, 8 weeks): 19.592 mm^3 | Fusion Mass Bone Volume to Tissue Volume (Lewis rats [1]; 20 mg, 8 weeks): 24.565% | Fusion Mass Total Tissue Volume (Lewis rats [1]; 20 mg, 8 weeks): 79.934 mm^3 | Fusion Mass Trabecular Separation (Lewis rats [1]; 20 mg, 8 weeks): 310.912 μm | trabecular thickness per footnote (Lewis rats [1]; 20 mg, 8 weeks): 124.737 | EC50 ([2]; Mus musculus, 96 h): ~500 nM | Gli-dependent reporter activity induction ([3]; 100 nM): 5 fold | Gli-dependent reporter activity induction ([3]; 1 μM): 17 fold | EC50 ([4]; Mus musculus, M210B4, 96 h, read-out: EC50 for inducing ALP activity): ~440 nM | BSP expression increase ([5]; 2 and 4 weeks): 4 fold | OCN expression induction ([5]; 4 weeks): 2 fold | OSX expression induction ([5]; 4 weeks): 3 fold | BSP expression increase ([5]; one week): 2 fold

C=C(C)CCC[C@](C)(O)[C@H]1CC[C@H]2[C@@H]3C[C@H](O)[C@H]4C[C@@H](O)CC[C@]4(C)[C@H]3CC[C@@]21C [Oxy49]
EC50 [2]: 900 nM | fusion at the 4 week time point (Lewis rats [6]): no fusion was observed

CC(C)CCCC(C)(O)C1CCC2C3CC(O)C4CC(O)CCC4(C)C3CCC21C (stereo not shown) [Oxy34]
EC50 [2]: 800 nM | fusion at the 4 week time point (Lewis rats [6]): no fusion was observed

CC(C)CCC[C@](C)(O)[C@H]1CC[C@H]2[C@@H]3CC=C4C[C@@H](O)CC[C@]4(C)[C@H]3CC[C@@]21C [Oxy 20S, 20(S)-hydroxycholesterol]
amount of YFP-Smo captured on 20S-coupled beads (Smoothened (YFP-Smo)): reduced the amount of YFP-Smo captured

CC1=C2C[C@H]3[C@@H](CC=C4C[C@@H](O)CC[C@@]43C)[C@@H]2CC[C@]12O[C@@H]1C[C@H](C)CN[C@H]1[C@H]2C [Cyclopamine, reference compound]
inhibition of Oxy133-induced ALP activity ([2]; 4 μM cyclopamine): completely inhibited | inhibition of Oxy133-induced ALP activity and osteogenic marker expression ([4]; M2 cells (data not shown)): completely inhibited
